Calls of active or inactive are those of the source. The calls are words filed in the database; no cut-off is given here.
Legend:
[1] = Induction of TGF-beta2 mRNA expression in bovine articular chondrocytes at 1 uM after 5 days by RT-PCR analysis relative to control; type: functional, Bos taurus
[2] = Induction of TGF-beta2 mRNA expression in bovine articular chondrocytes at 10 uM after 5 days by RT-PCR analysis relative to control; type: functional, Bos taurus
Bos taurus [3] = species: Bos taurus; test: Induction of TGF receptor type 1 mRNA expression in bovine articular chondrocytes at 10 uM after 5 days by RT-PCR analysis in presence of IL-1; type: functional, cell-based
Bos taurus [4] = species: Bos taurus; test: Induction of TGF receptor type 1 mRNA expression in bovine articular chondrocytes at 1 uM after 5 days by RT-PCR analysis in presence of IL-1; type: functional, cell-based
Bos taurus [5] = species: Bos taurus; test: Induction of TGF-beta1 mRNA expression in bovine articular chondrocytes at 1 uM after 5 days by RT-PCR analysis; type: functional, cell-based
Bos taurus [6] = species: Bos taurus; test: (§1) Antiosteoarthritis activity in bovine articular chondrocytes assessed as inhibition of IL1-induced reduction of aggrecan mRNA expression at 10 uM after 5 days by Northern blot analysis relative to control; type: functional
[7] = as §1; type: functional, Bos taurus; set-up: scale not given: the % may be the effect or the level left
Bos taurus [8] = species: Bos taurus; test: Induction of TGF-beta1 mRNA expression in bovine articular chondrocytes at 10 uM after 5 days by RT-PCR analysis; type: functional, cell-based
[9] = (§2) Antiosteoarthritis activity in bovine articular chondrocytes assessed as induction of aggrecan mRNA expression at 1 uM after 5 days by Northern blot analysis relative to control; type: functional, Bos taurus
Bos taurus [10] = species: Bos taurus; test: Induction of TGF receptor type 1 mRNA expression in bovine articular chondrocytes at 10 uM after 5 days by RT-PCR analysis; type: functional, cell-based
Bos taurus [11] = species: Bos taurus; test: Induction of TGF-beta1 mRNA expression in bovine articular chondrocytes at 10 uM after 5 days by RT-PCR analysis in presence of IL-1; type: functional, cell-based
[12] = (§3) Antiosteoarthritis activity in bovine articular chondrocytes assessed as induction of aggrecan mRNA expression at 0.1 uM after 5 days by Northern blot analysis relative to control; type: functional, Bos taurus
Bos taurus [13] = species: Bos taurus; test: Induction of TGF receptor type 1 mRNA expression in bovine articular chondrocytes at 1 uM after 5 days by RT-PCR analysis; type: functional, cell-based
Bos taurus [14] = species: Bos taurus; test: (§4) Antiosteoarthritis activity in bovine articular chondrocytes assessed as inhibition of IL1-induced reduction of aggrecan mRNA expression at 1 uM after 5 days by Northern blot analysis relative to control; type: functional
Bos taurus [15] = species: Bos taurus; test: Induction of TGF-beta1 mRNA expression in bovine articular chondrocytes at 1 uM after 5 days by RT-PCR analysis in presence of IL-1; type: functional, cell-based
Bos taurus [16] = species: Bos taurus; test: (§5) Antiosteoarthritis activity in bovine articular chondrocytes assessed as inhibition of IL1-induced reduction of aggrecan mRNA expression at 0.1 uM after 5 days by Northern blot analysis relative to control; type: functional
Bos taurus [17] = species: Bos taurus; test: (§6) Antiosteoarthritis activity in bovine articular chondrocytes assessed as induction of aggrecan mRNA expression at 10 uM after 5 days by Northern blot analysis relative to control; type: functional
Bos taurus [18] = species: Bos taurus; test: as §2; type: functional
Bos taurus [19] = species: Bos taurus; test: as §3; type: functional
Bos taurus [20] = species: Bos taurus; test: Antiosteoarthritis activity in bovine articular chondrocytes assessed as restoration of IL-1-inuced inhibition of proteoglycans biosynthesis at 0.1 to 10 uM; type: functional, cell-based
[21] = Induction of TGF receptor type 2 mRNA expression in bovine articular chondrocytes at 10 uM after 5 days by RT-PCR analysis relative to control; type: functional, Bos taurus
[22] = Antiosteoarthritis activity in bovine articular chondrocytes assessed as inhibition of IL1-induced reduction of aggrecan mRNA expression at 1 uM after 5 days by RT-PCR analysis relative to control; type: functional; conditions: Bos taurus, 120 h
[23] = Induction of TGF receptor type 2 mRNA expression in bovine articular chondrocytes at 1 uM after 5 days by RT-PCR analysis relative to control; type: functional, Bos taurus
Bos taurus [24] = species: Bos taurus; test: (§7) Antiosteoarthritis activity in bovine articular chondrocytes assessed as induction of aggrecan mRNA expression at 10 uM after 5 days by RT-PCR analysis relative to control; type: functional
[25] = as §7; type: functional, Bos taurus
[26] = Antiosteoarthritis activity in bovine articular chondrocytes assessed as inhibition of IL1-induced reduction of aggrecan mRNA expression at 0.1 uM after 5 days by RT-PCR analysis relative to control; type: functional; conditions: Bos taurus, 120 h
[27] = as §6; type: functional; conditions: Bos taurus, 120 h; values are per cent of control
[28] = as §4; type: functional, Bos taurus; set-up: scale not given: the % may be the effect or the level left
[29] = as §5; type: functional, Bos taurus; set-up: scale not given: the % may be the effect or the level left

Row | Compound | Activity (Bos taurus [6]) | Activity [12] [%] | Activity (Bos taurus [14]) | Activity (Bos taurus [16]) | Activity (Bos taurus [17]) | Activity (Bos taurus [18]) | Activity (Bos taurus [19]) | also measured
1 | CN(C)CCCNC(=O)C1=C(O)c2ccccc2S(=O)(=O)N1C [PROPOXICAM] | Active | 25 | Active | Active |  |  |  | Activity [1]: 31%; Activity [2]: 22%; Activity (Bos taurus [3]): inactive; Activity (Bos taurus [4]): inactive; Activity (Bos taurus [5]): inactive; Activity [7]: 65%; Activity (Bos taurus [8]): inactive; Activity [9]: 25%; Activity (Bos taurus [10]): inactive; Activity (Bos taurus [11]): inactive; Activity (Bos taurus [13]): inactive; Activity (Bos taurus [15]): inactive
2 | CN1C(C(=O)NCCCC[N+](C)(C)C)=C(O)c2ccccc2S1(=O)=O | inactive |  | inactive | inactive | inactive | inactive | inactive | 
3 | CN1C(C(=O)Nc2ccccn2)=C(O)c2ccccc2S1(=O)=O [PIROXICAM] | Active | 23 | Active | Active |  |  |  | Activity [9]: 37%
4 | CN1C(C(=O)NCCC[n+]2ccccc2)=C(O)c2ccccc2S1(=O)=O | inactive |  | inactive | inactive | inactive | inactive | inactive | 
5 | CC[N+](C)(C)CCCNC(=O)C1=C(O)c2ccccc2S(=O)(=O)N1C | inactive |  | inactive | inactive | inactive | inactive | inactive | 
6 | CN1C(C(=O)NCCC[N+](C)(C)C)=C(O)c2ccccc2S1(=O)=O.[I-] |  |  |  |  |  |  |  | Activity [1]: 30%; Activity [2]: 37%; Activity (Bos taurus [3]): inactive; Activity (Bos taurus [4]): inactive; Activity (Bos taurus [20]): Active; Activity [21]: 18%; Activity (Bos taurus [5]): inactive; inhibition at 1 µM [22]: 63%; Activity (Bos taurus [8]): inactive; Activity (Bos taurus [10]): inactive; Activity (Bos taurus [11]): inactive; Activity (Bos taurus [13]): inactive; Activity [23]: 45%; Activity (Bos taurus [15]): inactive; Activity (Bos taurus [24]): Active; Activity [25]: 62%; inhibition at 0.1 µM [26]: 150%
7 | CC[N+](C)(CC)CCCNC(=O)C1=C(O)c2ccccc2S(=O)(=O)N1C.[I-] | Active | 31 | Active | Active |  |  |  | Activity (Bos taurus [20]): Active; inhibition at 1 µM [22]: 130%; response, % of control at 10 µM [27]: 216%; Activity [28]: 130%; Activity [25]: 31%; Activity [29]: 216%
8 | CC[N+](CC)(CC)CCCNC(=O)C1=C(O)c2ccccc2S(=O)(=O)N1C | inactive |  | inactive | inactive | inactive | inactive | inactive | 

From ChEMBL document CHEMBL1154344, “New quaternary ammonium oxicam derivatives: synthesis and in vitro antiosteoarthritis evaluation” (2010)
